Measurements taken from patent US4698350A, “1-ethyl-6-fluoro-1,4-dihydro- 7-(2,6-dimethyl-4-pyridinyl)-4-oxo-3-quinolinecarboxylic acid and antibacterial use thereof” (Sterling Drug Inc., priority 1984, dated 1987).
Read-outs that look alike come from different tables or passages of the source.

Tests used:
S. aureus 21-81A = test: In vitro antibacterial MIC/MBC test; type: cell-based; conditions: Staphylococcus aureus, 2181A, S. aureus 21-81A
Procedure: (§1) Win 52,522 and Win 35,439 were solubilized in 0.1 ml of 0.5 N NaOH/mg of compound and diluted in sterile distilled water to 160 mcg/ml. Vancomycin and methicillin were solubilized in sterile distilled water to 1250 mcg/ml of base compound. The stock solutions were sterilized by filtration through membrane filters with a 0.45 μm pore size.
(§2) The bacterial cultures listed in Table I (hereinbelow) were grown overnight at 37° C. in MHB for all cultures except the Streptococcus strains. These were grown in BHI+10% NHS. The overnight broth cultures were adjusted to an optical density of 0.10 (650 nm, B L Spectronic 20) in sterile distilled water and subsequently diluted to 6.7×10^6 cells/ml in MHB or BHI+1% NHS.
(§3) Serial two-fold dilutions of the compound solutions were prepared in MHB (or in BHI+1% NHS for tests with Streptococci) and dispensed into 96-well microtiter trays in a volume of 0.1 ml/well using a Sandy Springs (Bellco Glass Co.) dispenser. The trays were then inoculated with 0.0015 ml of a suspension containing 6.7×10^6 cells/ml of the appropriate inoculum using a MIC-2000 inoculator (Dynatech Corp.) resulting in a final inoculum of approximately 1×10^4 cells/well or 1×10^5 cells/ml. The trays were incubated at 37° C. for 18-20 hours and the minimal inhibitory concentration (MIC), defined as the lowest concentration of compound to inhibit visible bacterial growth, was recorded.
(§4) After the MIC values were recorded, the contents in the microtiter trays were thoroughly mixed on a Bellco Mini-orbital Shaker (Bellco Glass Co.) for 3 min. at a setting of 8. A portion (0.0015 ml) from each well was then transferred via an MIC-2000 inoculator to plates containing MHA or BHI agar+10% NHS. The plates were incubated at 37° C. for 18-20 hrs. The minimal bactericidal concentration (MBC), defined as the lowest concentration of compound that prevented the formation of a recognizable colony on the agar surface, was recorded.

S. epidermidis 2-1-B = test: In vitro antibacterial MIC/MBC test; type: cell-based; conditions: Staphylococcus epidermidis, 21B, S. epidermidis 2-1-B
Procedure: as §1, §2, §3, §4

S. aureus 41-81 = test: In vitro antibacterial MIC/MBC test; type: cell-based; conditions: Staphylococcus aureus, 4181, S. aureus 41-81
Procedure: as §1, §2, §3, §4

S. aureus 4-81 = test: In vitro antibacterial MIC/MBC test; type: cell-based; conditions: Staphylococcus aureus, 481, S. aureus 4-81
Procedure: as §1, §2, §3, §4

S. epidermidis (12228) = test: In vitro antibacterial MIC/MBC test; type: cell-based; conditions: Staphylococcus epidermidis, ATCC12228, S. epidermidis ATCC No. 12228
Procedure: as §1, §2, §3, §4

S. aureus VA16951 = test: In vitro antibacterial MIC/MBC test; type: cell-based; conditions: Staphylococcus aureus, S. aureus VA16951
Procedure: as §1, §2, §3, §4

S. pneumoniae Type I = test: In vitro antibacterial MIC/MBC test; type: cell-based; conditions: Streptococcus pneumoniae, S. pneumoniae Type I
Procedure: as §1, §2, §3, §4

S. faecalis (8043) = test: In vitro antibacterial MIC/MBC test; type: cell-based; conditions: Enterococcus faecalis, ATCC8043, S. faecalis ATCC No. 8043
Procedure: as §1, §2, §3, §4

S. faecalis 4510 = test: In vitro antibacterial MIC/MBC test; type: cell-based; conditions: Enterococcus faecalis, S. faecalis 4510
Procedure: as §1, §2, §3, §4

S. aureus (25923) = test: In vitro antibacterial MIC/MBC test; type: cell-based; conditions: Staphylococcus aureus, ATCC25923, S. aureus ATCC No. 25923
Procedure: as §1, §2, §3, §4

S. aureus Smith = test: In vitro antibacterial MIC/MBC test; type: cell-based; conditions: Staphylococcus aureus, S. aureus Smith
Procedure: as §1, §2, §3, §4

S. epidermidis 1-3-H = test: In vitro antibacterial MIC/MBC test; type: cell-based; conditions: Staphylococcus epidermidis, 13H, S. epidermidis 1-3-H
Procedure: as §1, §2, §3, §4

S. aureus S-234 = test: In vitro antibacterial MIC/MBC test; type: cell-based; conditions: Staphylococcus aureus, S234, S. aureus S-234
Procedure: as §1, §2, §3, §4

S. aureus 39881 = test: In vitro antibacterial MIC/MBC test; type: cell-based; conditions: Staphylococcus aureus, S. aureus 39881
Procedure: as §1, §2, §3, §4

S. aureus 13-8-A = test: In vitro antibacterial MIC/MBC test; type: cell-based; conditions: Staphylococcus aureus, 138A, S. aureus 13-8-A
Procedure: as §1, §2, §3, §4

S. pyogenes 7948-15 = test: In vitro antibacterial MIC/MBC test; type: cell-based; conditions: Streptococcus pyogenes, 794815, S. pyogenes 7948-15
Procedure: as §1, §2, §3, §4

S. epidermidis (17917) = test: In vitro antibacterial MIC/MBC test; type: cell-based; conditions: Staphylococcus epidermidis, ATCC17917, S. epidermidis ATCC No. 17917
Procedure: as §1, §2, §3, §4

S. aureus 24-81 = test: In vitro antibacterial MIC/MBC test; type: cell-based; conditions: Staphylococcus aureus, 2481, S. aureus 24-81
Procedure: as §1, §2, §3, §4

S. aureus 59-81 = test: In vitro antibacterial MIC/MBC test; type: cell-based; conditions: Staphylococcus aureus, 5981, S. aureus 59-81
Procedure: as §1, §2, §3, §4

S. enterococcus 0-2-13 = test: In vitro antibacterial MIC/MBC test; type: cell-based
Procedure: as §1, §2, §3, §4

S. edidermidis = test: In vitro MIC/MBC summary (Table II); type: cell-based, S. epidermidis; conditions: Staphylococcus epidermidis, 5 S. edidermidis strains
Procedure: as §1, §2, §3, §4

CCn1cc(C(=O)O)c(=O)c2cc(F)c(-c3cc(C)nc(C)c3)cc21 [Win 52,522, 1-ethyl-6-fluoro-1,4-dihydro-7-(2,6-dimethyl-4-pyridinyl)-4-oxo-3-quinolinecarboxylic acid]
0.125 µg/mL: MBC (S. faecalis 4510; read-out: MBC) | MIC (S. faecalis 4510; read-out: MIC) | MBC (S. epidermidis (17917); read-out: MBC)
0.03 to 0.125 µg/mL: MBC (S. edidermidis; read-out: MBC Range)
equal in potency: potency relative to vancomycin (S. enterococcus 0-2-13; in vitro, enterococcus strain 0-2-B)
0.06 µg/mL: MBC (S. epidermidis (12228); read-out: MBC) | MIC (S. epidermidis (12228); read-out: MIC) | MBC (S. epidermidis 1-3-H; read-out: MBC) | MIC (S. epidermidis 1-3-H; read-out: MIC) | MIC (S. epidermidis (17917); read-out: MIC) | MBC (S. edidermidis; read-out: MBC 50%) | MBC (S. edidermidis; read-out: MBC 90%) | MIC50 (S. edidermidis; read-out: MIC 50%) | MIC90 (S. edidermidis; read-out: MIC 90%)
0.25 µg/mL: MBC (S. pneumoniae Type I; read-out: MBC) | MIC (S. pneumoniae Type I; read-out: MIC) | MIC (S. faecalis (8043); read-out: MIC) | MBC (S. enterococcus 0-2-13; 0213, S. enterococcus 0-2-13, read-out: MBC) | MIC (S. enterococcus 0-2-13; 0213, S. enterococcus 0-2-13, read-out: MIC)
0.03 to 0.06 µg/mL: MIC (S. edidermidis; read-out: MIC Range)
0.5 µg/mL: MBC (S. faecalis (8043); read-out: MBC) | MBC (S. pyogenes 7948-15; read-out: MBC) | MIC (S. pyogenes 7948-15; read-out: MIC)
0.015 µg/mL: MBC (S. aureus 21-81A; read-out: MBC) | MIC (S. aureus 21-81A; read-out: MIC) | MBC (S. aureus 41-81; read-out: MBC) | MIC (S. aureus 41-81; read-out: MIC) | MIC (S. aureus 4-81; read-out: MIC) | MBC (S. aureus VA16951; read-out: MBC) | MIC (S. aureus VA16951; read-out: MIC) | MIC (S. aureus (25923); read-out: MIC) | MIC (S. aureus S-234; read-out: MIC) | MIC (S. aureus 39881; read-out: MIC) | MIC (S. aureus 24-81; read-out: MIC) | MIC (S. aureus 59-81; read-out: MIC)
0.03 µg/mL: MBC (S. epidermidis 2-1-B; read-out: MBC) | MIC (S. epidermidis 2-1-B; read-out: MIC) | MBC (S. aureus 4-81; read-out: MBC) | MBC (S. aureus (25923); read-out: MBC) | MBC (S. aureus Smith; read-out: MBC) | MIC (S. aureus Smith; read-out: MIC) | MBC (S. aureus S-234; read-out: MBC) | MBC (S. aureus 39881; read-out: MBC) | MBC (S. aureus 13-8-A; read-out: MBC) | MIC (S. aureus 13-8-A; read-out: MIC) | MBC (S. aureus 24-81; read-out: MBC) | MBC (S. aureus 59-81; read-out: MBC)
